Measurements taken from article PMC8617681 (Pharmaceuticals, 2021).
Read-outs that look alike come from different tables or passages of the source.

Key:
[1] = 2 h pharmacokinetic study with or without elacridar in wild-type and Abcb1a/1b;Abcg2-/- mice; format: in vivo; details: for concentration at 2 h / Cmax / Tmax / AUC(0-t): mouse, 10 mg/kg oral, 2 h; for Cmax / Tmax / AUC(0-t): male, plasma, po, 10 mg/kg; for AUC(0-t): read-out: AUC0–2h
Procedure: (§1) Mice were housed and handled according to institutional guidelines complying with Dutch and EU legislation. All experimental animal protocols were evaluated and approved by the institutional animal care and use committee. Wild-type, Abcb1a/1b^-/-, Abcg2^-/-, Abcb1a/1b; Abcg2^-/-, Slco1a/1b^-/- male mice, and Cyp3a^-/- and Cyp3aXAV female mice, all of a >99% FVB genetic background, were used between 9 and 16 weeks of age. […] All experimental animal protocols (WP9450, 9669, 9760), including power calculations, designed under the nationally approved DEC/CCD project AVD301002016595, were evaluated and approved by the institutional animal care and use committee of The Netherlands Cancer Institute.
Elacridar hydrochloride was dissolved in DMSO (53 mg/mL) in order to obtain 50 mg elacridar base per mL DMSO. The stock solution was further diluted with a mixture of polysorbate 20, 100% ethanol and 5% glucose water to yield a concentration of 5 mg/mL elacridar [DMSO: polysorbate 20: 100% ethanol: 5% glucose water = 10:15:15:60, (v/v/v/v)]. All dosing solutions were prepared freshly on the day of the experiment.
(§2) For the 4 h transporter experiments, tail-vein blood samples were collected at 0.125, 0.25, 0.5, 1, and 2 h time points after oral administration, respectively. For the CYP3A 8 h experiments, tail-vein blood sampling was performed at 0.25, 0.5, 1, 2, and 4 h, respectively. While for elacridar inhibition experiments, tail-vein blood samples were collected at 0.125, 0.25, 0.5, and 1 h time points after oral administration, respectively. Blood sample collection was performed using microvettes containing dipotassium EDTA. At the last time point in each experiment (2, 4 or 8 h), mice were anesthetized with 5% isoflurane and blood was collected by cardiac puncture. Blood samples were collected in Eppendorf tubes containing heparin as an anticoagulant. The mice were then sacrificed by cervical dislocation and brain, liver, kidney, lung, small intestine and testis were rapidly removed. Plasma was isolated from the blood by centrifugation at 9000× g for 6 min at 4 °C, and the plasma fraction was collected and stored at −30 °C until analysis. Organs were homogenized with 4% (w/v) bovine serum albumin and stored at −30 °C until analysis.
(§3) Pharmacokinetic parameters were calculated by noncompartmental methods using the PK solver software. The area under the plasma concentration–time curve (AUC) was calculated using the trapezoidal rule, without extrapolating to infinity. The peak plasma concentration (Cmax) and the time of maximum plasma concentration (Tmax) were estimated from the original (individual mouse) data. One-way analysis of variance (ANOVA) was used when multiple groups were compared and the Tukey post hoc correction was used to accommodate multiple testing. The two-sided unpaired Student’s t-test was used when treatments or differences between two specific groups were compared using the software GraphPad Prism 8 (GraphPad Software Inc., La Jolla, CA, USA). All the data were log-transformed before statistical tests were applied. Differences were considered statistically significant when p < 0.05. All data are presented as geometric mean ± SD.

[2] = 8 h pharmacokinetic study in wild-type, Cyp3a-/- and Cyp3aXAV mice; details: mouse, in vivo, po, 10 mg/kg; for concentration at 8 h / AUC(0-t) / Cmax / Tmax / SIC percentage of dose: female; for SIC percentage of dose: 8 h
Procedure: Many drugs and prodrugs are metabolized by CYP3A, which can therefore restrict their oral exposure.
as §1, with “Institute. […]” for “Institute.”
as §2, §3

[3] = Oral selpercatinib pharmacokinetics in mice, summarised over the studies; format: in vivo; details: FVB (wild-type), mouse, plasma, 10 mg/kg oral, average
Procedure: as §2
Pharmacokinetic parameters were calculated by noncompartmental methods using the PK solver software. The area under the plasma concentration–time curve (AUC) was calculated using the trapezoidal rule, without extrapolating to infinity. […]

CNS metastasis = details: 11 patients with measurable CNS lesions, cited from earlier work
[4] = Abcb1a/1b;Abcg2-/- (>99% FVB genetic background), male Abcb1a/1b;Abcg2-/- mice, elacridar 50 mg/kg oral 2 h prior
[5] = Abcb1a/1b;Abcg2-/- (>99% FVB genetic background), male Abcb1a/1b;Abcg2-/- mice, vehicle
[6] = wild-type (>99% FVB genetic background), male wild-type mice, elacridar 50 mg/kg oral 2 h prior
[7] = wild-type (>99% FVB genetic background), male wild-type mice, vehicle

COc1ccc(CN2C3CC2CN(c2ccc(-c4cc(OCC(C)(C)O)cn5ncc(C#N)c45)cn2)C3)cn1 [selpercatinib]
concentration at 2 h ([1]; Abcb1a/1b;Abcg2-/- (>99% FVB genetic background), brain, male Abcb1a/1b;Abcg2-/- mice, elacridar 50 mg/kg oral 2 h prior, read-out: Cbrain): 4710 ± 484 ng/g | concentration at 2 h ([1]; Abcb1a/1b;Abcg2-/- (>99% FVB genetic background), brain, male Abcb1a/1b;Abcg2-/- mice, vehicle, read-out: Cbrain): 4730 ± 638 ng/g | concentration at 2 h ([1]; FVB (Abcb1a/1b;Abcg2-/-), liver, with elacridar 50 mg/kg oral, 2 h before selpercatinib, male Abcb1a/1b;Abcg2-/- mice, elacridar 50 mg/kg oral 2 h prior, read-out: CLiver): 23600 ng/g | concentration at 2 h ([1]; FVB (Abcb1a/1b;Abcg2-/-), liver, male Abcb1a/1b;Abcg2-/- mice, vehicle, read-out: CLiver): 21400 ng/g | concentration at 2 h ([1]; FVB (wild-type), liver, with elacridar 50 mg/kg oral, 2 h before selpercatinib, male wild-type mice, elacridar 50 mg/kg oral 2 h prior, read-out: CLiver): 20000 ng/g | concentration at 2 h ([1]; FVB (wild-type), liver, male wild-type mice, vehicle, read-out: CLiver): 18100 ng/g | concentration at 2 h ([1]; FVB, small intestine tissue together with contents, male Abcb1a/1b;Abcg2-/- mice, elacridar 50 mg/kg oral 2 h prior, read-out: CSI + SIC (small intestine tissue together with contents concentration)): 21200 ng/g | concentration at 2 h ([1]; FVB, small intestine tissue together with contents, male Abcb1a/1b;Abcg2-/- mice, vehicle, read-out: CSI + SIC (small intestine tissue together with contents concentration)): 18800 ng/g | concentration at 2 h ([1]; FVB, small intestine tissue together with contents, male wild-type mice, elacridar 50 mg/kg oral 2 h prior, read-out: CSI + SIC (small intestine tissue together with contents concentration)): 26600 ng/g | concentration at 2 h ([1]; FVB, small intestine tissue together with contents, male wild-type mice, vehicle, read-out: CSI + SIC (small intestine tissue together with contents concentration)): 37600 ng/g | concentration at 2 h ([1]; FVB, testis, male Abcb1a/1b;Abcg2-/- mice, elacridar 50 mg/kg oral 2 h prior, read-out: Ctestis): 9200 ± 856 ng/g | concentration at 2 h ([1]; FVB, testis, male Abcb1a/1b;Abcg2-/- mice, vehicle, read-out: Ctestis): 7020 ± 664 ng/g | concentration at 2 h ([1]; FVB, testis, male wild-type mice, elacridar 50 mg/kg oral 2 h prior, read-out: Ctestis): 5710 ± 1740 ng/g | concentration at 2 h ([1]; FVB, testis, male wild-type mice, vehicle, read-out: Ctestis): 788 ± 159 ng/g | Cmax [1, 4]: 9620 ± 776 ng/mL | Tmax [1, 4]: 47.4 ± 19.8 min | AUC(0-t) [1, 4]: 17300 ng·h/mL | Cmax [1, 5]: 8860 ± 792 ng/mL | Tmax [1, 5]: 60 min | AUC(0-t) [1, 5]: 15100 ng·h/mL | AUC(0-t) ([1]; FVB, wild-type, male wild-type mice, vehicle): 14100 ng·h/mL | Cmax [1, 6]: 7470 ± 1850 ng/mL | Tmax [1, 6]: 30 ± 16.2 min | AUC(0-t) [1, 6]: 12900 ng·h/mL | Cmax [1, 7]: 8740 ± 1560 ng/mL | Tmax [1, 7]: 45 ± 16.2 min | concentration at 2 h ([1]; wild-type (>99% FVB genetic background), brain, male wild-type mice, elacridar 50 mg/kg oral 2 h prior, read-out: Cbrain): 2760 ± 851 ng/g | concentration at 2 h ([1]; wild-type (>99% FVB genetic background), brain, male wild-type mice, vehicle, read-out: Cbrain): 210 ± 40 ng/g | abnormal external behavior ([1]; wild-type mice, oral co-administration of elacridar): without any abnormal external behavior | concentration at 8 h ([2]; Cyp3a-/- (>99% FVB genetic background), CLiver): 7900 ± 1270 ng/g | concentration at 8 h ([2]; Cyp3a-/- (>99% FVB genetic background), CSI (small intestine tissue concentration)): 6380 ± 930 ng/g | concentration at 8 h ([2]; Cyp3a-/- (>99% FVB genetic background), Cbrain): 86.2 ± 24.2 ng/g | concentration at 8 h ([2]; Cyp3aXAV (>99% FVB genetic background), CLiver): 4390 ± 755 ng/g | concentration at 8 h ([2]; Cyp3aXAV (>99% FVB genetic background), CSI (small intestine tissue concentration)): 5030 ± 347 ng/g | AUC(0-t) ([2]; FVB, Cyp3a-/-): 72200 ng·h/mL | Cmax ([2]; FVB, Cyp3a-/-): 12300 ng/mL | Tmax ([2]; FVB, Cyp3a-/-): 1.4 ± 1.3 h | SIC percentage of dose ([2]; FVB, Cyp3a-/-): 1.4 ± 0.6 % | concentration at 8 h ([2]; FVB, Cyp3a-/-, CSIC (small intestine contents concentration)): 44900 ng/g | AUC(0-t) ([2]; FVB, wild-type): 52300 ng·h/mL | Cmax ([2]; FVB, wild-type): 8560 ± 1300 ng/mL | Tmax ([2]; FVB, wild-type): 1.5 ± 1.3 h | SIC percentage of dose ([2]; FVB, wild-type): 2.5 ± 0.9% | concentration at 8 h ([2]; FVB, wild-type, CSIC (small intestine contents concentration)): 83900 ng/g | concentration at 8 h ([2]; FVB, wild-type, Cbrain): 82.4 ± 16.8 ng/g | AUC(0-t) [2]: 45800 ng·h/mL | Cmax [2]: 9480 ± 548 ng/mL | Tmax [2]: 0.29 ± 0.1 h | SIC percentage of dose [2]: 1.5 ± 0.5% | concentration at 8 h ([2]; CSIC (small intestine contents concentration)): 48500 ng/g | concentration at 8 h ([2]; Cbrain): 51 ± 15.2 ng/g | concentration at 8 h ([2]; wild-type (>99% FVB genetic background), CLiver): 8260 ± 1620 ng/g | concentration at 8 h ([2]; wild-type (>99% FVB genetic background), CSI (small intestine tissue concentration)): 7300 ± 1120 ng/g | abnormal external behavior (acute toxicity) [2]: did not observe any abnormal external behavior | Cmax [3]: ~8000 ng/mL | percentage with an objective intracranial response (CNS metastasis; independent review): 91% | complete responses (intracranial) (CNS metastasis): 27% | partial responses (intracranial) (CNS metastasis): 64%
